Laboratory results as given in paper PMC12405480, “Endogenous ligands of bovine FFAR2/GPR43 display distinct pharmacological properties” (Frontiers in Cell and Developmental Biology, 2025).

molecular target: T1, bFFAR2 (bovine FFAR2/GPR43) (Bos taurus, UniProt A0ACM8QIU6); assay: BRET, mini-Gαi recruitment to bFFAR2-Rluc8, HEK293A; type: cell-based; conditions: not given
T1 construct: full-length synthetic cDNA, N-terminal FLAG tag; transiently expressed in HEK293A cells
T1 sequence (A0ACM8QIU6 1-329): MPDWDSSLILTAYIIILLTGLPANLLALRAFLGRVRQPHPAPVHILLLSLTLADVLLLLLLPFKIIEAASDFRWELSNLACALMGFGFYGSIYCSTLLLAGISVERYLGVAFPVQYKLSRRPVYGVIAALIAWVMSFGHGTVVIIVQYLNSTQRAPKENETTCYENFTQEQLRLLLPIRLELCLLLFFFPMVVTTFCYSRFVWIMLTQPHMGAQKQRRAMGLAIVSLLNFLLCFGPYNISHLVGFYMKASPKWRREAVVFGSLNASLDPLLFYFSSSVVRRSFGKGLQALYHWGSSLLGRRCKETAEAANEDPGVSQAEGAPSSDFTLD
Source text: BRET, mini-Gαi recruitment to bFFAR2-Rluc8, HEK293A on bFFAR2 (bovine FFAR2/GPR43)

Row | Structure (SMILES) | EC50
1 | CC(=O)O [C2:0] | 9770 µM
2 | CCC(=O)O [C3:0] | 977 µM
3 | CC(C)CC(=O)O [3MB, 3-methyl-butanoic acid] | 75.9 µM
4 | CCCCCCC(=O)O [C7:0] | 126 µM
5 | CCCC(=O)O [C4:0] | 129 µM
6 | CCCCC(=O)O [C5:0] | 61.7 µM
7 | CCCCCC(=O)O [C6:0] | 72.4 µM

same assay, conditions: partial agonist; AUC over 10 min; -log10 of EC50; unreliable (EC50 above the 1 mM dose of Figure 1)

Row | Structure (SMILES) | mGαi recruitment
8 | CCCCCCCC(=O)O [C8:0] | 2.57 ± 0.40

molecular target: T1, bFFAR2 (bovine FFAR2/GPR43); assay: SRE luciferase reporter gene assay, HEK293A expressing bFFAR2; type: cell-based; conditions: not given
Source text: SRE luciferase reporter gene assay, HEK293A expressing bFFAR2 on bFFAR2 (bovine FFAR2/GPR43)

Row | Structure (SMILES) | EC50
9 | CC(C)C(=O)O [2MP, 2-methyl-propanoic acid] | 234 µM
